Source: patent publication US7456154B2 (priority 2001, dated 2008)

Legend:
EAMG rats [1] = experiment: Repeated daily treatment of EAMG rats (5 days and 1 month): survival, body weight, status; format: in vivo, rat
Description: As shown in Example 5, unlike anti-cholinesterases, rEN101 afforded long-term maintenance of stable CMAP. This further enabled the inventors to test whether the cholinergic imbalance contributes to the physiological deterioration that is characteristic of EAMG. Rats were first treated with rEN101 once a day for 5 days, CMAPs being determined prior to each treatment. Both the efficacy of rEN101 in retrieving normal CMAP and its capacity to reduce the inter-animal variability in CMAP values reached similar levels to those of pyridostigmine (FIGS. 11A and 11B). However, the onset of response to pyridostigmine was more rapid (Table 1), while that observed with rEN101 was longer-lasting. Daily oral or i.v administration of rEN101 stabilized CMAPs over the entire course of treatment (FIG. 11B). In contrast, the effect of pyridostigmine wore off within several hours, causing pronounced fluctuations in muscle status (Table 1 and FIG. 11). Among the animals treated daily with pyridostigmine, 5 out of 6 died within the 5 day experimental course. In contrast, 6 out of 8 animals treated once-a-day with rEN101 via o.g. survived the full 5 day period. This conspicuous difference might reflect the susceptibility of EAMG rats to repeated anesthesia and CMAP measurements. In order to avoid these additional stresses and evaluate the effect of the antisense treatment on EAMG pathophysiology, the inventors subjected groups of moderately sick animals to 1 month of daily oral treatment with minimal interference. […] One way repeated measures ANOVA yielded P<0.05 for all other measures (AS vs. other treatments at 4 weeks). The effect of rEN101 on clinical symptoms was also corroborated by body weight changes. Rats treated with saline and Mestinon treated groups lost 13.5 and 11 g/animal, respectively, whereas animals treated with rEN101 gained, on average, 13 g during the treatment period. Thus, daily rEN101 administration promoted long-term change in the course of EAMG in rats with moderate to severe symptoms, under the same conditions in which untreated or pyridostigmine-treated animals deteriorated.

healthy rats = experiment: Electromyography: CMAP ratio in naive (healthy) rats; format: in vivo, rat; conditions: for CMAP ratio (5th vs. 1st amplitude): naive rats, 50 μg/Kg, average ± SEM
Experimental: Electromyography: Rats were anesthetized by i.p. injection of […] pentobarbital, immobilized, and subjected to repetitive sciatic nerve stimulation, using a pair of concentric needle electrodes at 3 Hz. Baseline compound muscle action potential (CMAP) was recorded by a concentric needle electrode placed in the gastrocnemius muscle, following a train of repetitive nerve stimulations at supramaximal intensity. Decrease (percent) in the amplitude of the fifth vs. the first muscle action potential was determined in two sets of repetitive stimulations for each animal. A reduction of 10% or more was considered indicative of neuromuscular transmission dysfunction.
Drug administration: Intravenous injections and blood sampling for anti-AChR antibodies testing were via the right jugular vein under anesthesia. For oral administration, a special needle for oral gavage feeding was used, which is curved with a ball end (Stoelting, Wood Dale Ill.). Mestinon® was administered in a dose of 1 mg/kg/day, and purchased from Hoffmann La-Roche. Basel, Switzerland.

EAMG rats [2] = experiment: Electromyography: CMAP ratio under repetitive 3 Hz nerve stimulation in EAMG rats; format: in vivo, rat; conditions: for CMAP ratio (5th vs. 1st amplitude): average ± SEM
AChE-R mRNA = experiment: In situ hybridization of AChE-R mRNA in monkey spinal cord neurons; format: in vivo, Cynomolgus monkey
Experimental: In situ hybridization: Tissues were fixed in 4% paraformaldehyde and cut into 7 μm paraffin embedded sections. Spinal cord sections were deparaffinized, rehydrated using serial ethanol dilutions and permeabilized with proteinase K (10 μg/ml at room temp.). Slides were exposed to 5′ biotinylated, fully 2′-oxymethylated AChE-R or AChE-S-specific 50-mer cRNA probes complementary to human ACHE pseudo-intron 4 or exon 6, respectively [Grisaru et al. (2001) id ibid.]. Hybridization was performed overnight at 52° C. in hybridization mixture containing 10 μg/ml probe, 50 μg/ml yeast tRNA, 50 μg/ml heparin and 50% formamide in 375 mM Na chloride, 37.5 mM Na citrate, pH 4.5. For monkey sections, the probe was constructed according to the human AChE-R sequence; for rat sections, according to the mouse sequence. Slides were washed to remove non-hybridized probe, blocked with 1% skim milk containing 0.01% Tween-20 and 2 mM levamisole, an alkaline phosphatase inhibitor used to suppress non-specific staining and incubate with streptavidin-alkaline phosphatase (Amersham Pharmacia). Fast Red™ substrate (Roche Diagnostics) was used for detection. DAPI staining (Sigma Chemical Co., St. Louis, Mo., USA) served to visualize nuclei. Microscope images were analyzed with Image Pro Plus 4.0 (Media Cybernetics) software.
This experiment was conducted with six (3 males and 3 females) purpose-bred 15 month-old (young adult) Cynomolgus monkeys, divided in three groups (1, 2 and 3) of one male and one female each. Groups 1 and 2 received hEN101 daily by o.g. for a period of 7 days, at a concentration of 0.15 and 0.50 μg/g/day, respectively. Group 3 received daily i.v. injections of hEN101 for a period of 7 days at a dosage of 0.50 μg/g/day.
Paraffin-embedded 7 μm spinal cord sections were examined by in situ hybridization for the levels of AChE-R and AChE-S mRNA.
AChE-R-positive sections from monkey spinal cords were analyzed for the relation between cell body diameter and percentage of AChE-R positive cells (FIG. 15). Cells were divided into three categories according to their body diameter, and the percentage of AChE-R-positive cells from each category was evaluated. […] Either i.v. or p.o. administration of the higher EN101 concentration (500 μg/kg/day) reduced the percentage of AChE-R-positive neurons, compared to the lower concentration (p<0.05. Student's t test). […] We have yet to discover the functional correlate of cell size that determines the efficacy of antisense suppression of AChE-R expression.

For “5′-CTGCGATATTTTCTTGTACC-3′ (chemistry not given here) [rEN101]”, the “Animals that survived the full 5 day period” value (EAMG rats [1]; EAMG rats treated once-a-day via o.g.) was 6 out of 8, the “Survival, clinical status and treadmill performance vs pyridostigmine- and saline-treated animals” value (EAMG rats [1]; EAMG rats, 1 month daily oral doses (50 μg/Kg)) was “significant improvement in survival, clinical status and treadmill performance” and the “Body weight gained during the treatment period, average” value (EAMG rats [1]; EAMG rats, 1 month daily oral treatment) was 13 g. The “Effect on CMAP in healthy animals” value (healthy rats; i.v., doses 10-500 μg/Kg) was “did not affect CMAP”, the “CMAP ratio (5th vs. 1st amplitude)” value (healthy rats; intravenous, 0 h) was 1.00 ± 0.0 and the “CMAP ratio (5th vs. 1st amplitude)” value (healthy rats; intravenous, 5 h) was 1.00 ± 0.01. For the same substance, the “CMAP ratio (5th vs. 1st amplitude)” value (healthy rats; intravenous, 24 h) was 1.02 ± 0.01, the “CMAP ratio (5th vs. 1st amplitude)” value (healthy rats; oral, 0 h) was 1.01 ± 0.01 and the “CMAP ratio (5th vs. 1st amplitude)” value (healthy rats; oral, 1 h) was 1.0 ± 0.02. For the same substance, the “CMAP ratio (5th vs. 1st amplitude)” value (healthy rats; oral, 5 h) was 1.03 ± 0.02, the “CMAP ratio (5th vs. 1st amplitude)” value (healthy rats; oral, 24 h) was 1.01 ± 0.00 and the “Duration of effective CMAP correction” value (EAMG rats [2]; 50 μg/Kg i.v.) was 24 h. For the same substance, the “Duration of CMAP rectification” value (EAMG rats [2]; 500 μg/Kg i.v.) was 72 h, the “Extent of CMAP rectification” value (EAMG rats [2]; 500 μg/Kg i.v.) was “up to 125 % of baseline” and the “Average CMAP ratio in treated animals” value (EAMG rats [2]; EAMG rats, FIG. 9B inset) was 107.4±3.8 % of first depolarization. The “Duration of restoration of CMAP decline” value (EAMG rats [2]; doses between 10-500 μg/Kg) was “up to 72 h”, the “Time to retrieve stable CMAP ratios” value (EAMG rats [2]; i.v., doses 10-500 μg/Kg) was ≤ 1 h and the “IC50 of saturable CMAP response (dose response curve)” value (EAMG rats [2]; i.v., up to 5 h following injection (1 and 5 h)) was < 0.01 mg/kg. The “CMAP ratio (5th vs. 1st amplitude)” value (EAMG rats [2]; intravenous, EAMG rats, 0 h, 50 μg/Kg) was 0.87 ± 0.01, the “CMAP ratio (5th vs. 1st amplitude)” value (EAMG rats [2]; intravenous, EAMG rats, 1 h, 50 μg/Kg) was 1.00 ± 0.01 and the “CMAP ratio (5th vs. 1st amplitude)” value (EAMG rats [2]; intravenous, EAMG rats, 5 h, 50 μg/Kg) was 0.98 ± 0.02. For the same substance, the “CMAP ratio (5th vs. 1st amplitude)” value (EAMG rats [2]; intravenous, EAMG rats, 24 h, 50 μg/Kg) was 1.00 ± 0.00, the “Effect of oral administration on CMAP decline” value (EAMG rats [2]; oral gavage, 50 μg/Kg oligonucleotide, 1000 μg/kg pyridostigmine, CMAP 1, 5, 24 h) was “as effective as 25 μg/Kg administered i.v” and the “CMAP ratio (5th vs. 1st amplitude)” value (EAMG rats [2]; oral, EAMG rats, 0 h, 50 μg/Kg oligonucleotide, 1000 μg/Kg pyridostigmine) was 0.84 ± 0.03. The “CMAP ratio (5th vs. 1st amplitude)” value (EAMG rats [2]; oral, EAMG rats, 1 h, 50 μg/Kg oligonucleotide, 1000 μg/Kg pyridostigmine) was 0.97 ± 0.02, the “CMAP ratio (5th vs. 1st amplitude)” value (EAMG rats [2]; oral, EAMG rats, 5 h, 50 μg/Kg oligonucleotide, 1000 μg/Kg pyridostigmine) was 0.97 ± 0.03 and the “CMAP ratio (5th vs. 1st amplitude)” value (EAMG rats [2]; oral, EAMG rats, 24 h, 50 μg/Kg oligonucleotide, 1000 μg/Kg pyridostigmine) was 1.01 ± 0.01. For the same substance, the “CMAP ratio 24 h following single oral administration” value (EAMG rats [2]; single oral dose, rEN101 50 μg/kg, pyridostigmine 1000 μg/kg) was “no decline was detected”.
5′-CTGCCACGTTCTCCTGCACC-3′ [hEN101] was tested, and the “Percent of small AChE-R-positive cells (<70 μm diameter) vs naive monkeys” value (AChE-R mRNA; 150 μg/kg/day) was “caused an increase”, the “Effect on AChE-R labeling of larger neurons (>70 μm)” value (AChE-R mRNA; 150-500 μg/kg/day) was “not discernable effect” and the “AChE-R mRNA in spinal cord” value (AChE-R mRNA; increasing daily dose from 0.15 (oral) to 0.50 (oral or i.v.) μg/g/day, i.v. more effective) was “significant reduction”. For the same substance, the “Percentage of labeled small (23 to 40 μm) and medium-sized (40 to 70 μm) neurons” value (AChE-R mRNA; lower to higher oral dose (150 to 500 μg/kg/day), even further with i.v.) was “decreased significantly”.
